In article PMC13198257, “An aerosolized dual-action autotaxin inhibitor-PPARγ agonist for the treatment of pulmonary fibrosis” (Cell Reports Medicine, 2026):

System: lung gene expression
Assay: RNA sequencing of lung tissue (BLM/EL244 vs BLM)
Assay type: in vivo, mouse
Conditions: lung tissue, BLM/EL244 vs BLM
Protocol: RNA quality was assessed using an Agilent TapeStation 4150 with the High Sensitivity […] ScreenTape (Agilent), according to the manufacturer’s protocols. For library preparation, the QuantSeq 3’mRNA-Seq Library Prep Kit (Lexogen) was used according to manufacturer’s instructions. Briefly, 500 ng of RNA from each sample was used for first-strand synthesis, followed by RNA template removal, and second-strand synthesis initiated by random primers. In-line barcodes were introduced at this step, and this was followed by magnetic bead-based purification. The resulting libraries were amplified for 15 cycles and re-purified, with quantity and quality assessed on a Qubit 4 Fluorometer with the Invitrogen Qubit dsDNA HS Assay and an Agilent Tapestation 4150 with the High Sensitivity D1000 assay kit, respectively. The quantified libraries were pooled equimolarly; 50ng of total library mix was used for Adapter Conversion PCR Amplification using the Universal Library Conversion Kit (App-A), Version: V1.0 (MGI Tech Co., Ltd.), according to the manufacturer’s instructions.
The quantity and quality of the purified adapter conversion PCR (AC-PCR) product were evaluated on a Qubit 4 Fluorometer with the Invitrogen Qubit dsDNA HS Assay and on an Agilent Tapestation 4150 with the High Sensitivity D1000 assay kit, respectively. This was followed by DNA denaturation, Single-Strand Circularisation, Enzymatic Digestion, Enzymatic Digestion Product Cleanup and Quality Control steps on 1 pmol of AC-PCR product, according to the Universal Library Conversion Kit (App-A) User Manual (Version: A3).
Finally, 60 fmol of ssCirDNA were used for DNB preparation and sequencing on a DNBSEQ-G400 platform at the BSRC Alexander Fleming Genomics Facility, using a G400 App-A FCS SE100 High-throughput Sequencing Set (MGI Tech Co., Ltd.), according to the manufacturer’s instructions.
Alignment of the FASTQ files was performed against the mouse genome build mm10 using a custom Bash script.[143] Read counting on the 3′ UTRs and differential expression analysis were conducted using the metaseqR2 bioconductor package.[144] Genes corresponding to the following biotypes were excluded: polymorphic_pseudogene, processed_transcript, pseudogene, IG_V_pseudogene, misc_RNA, IG_C_gene, IG_J_gene, IG_D_gene, IG_LV_gene, TR_V_gene, TR_V_pseudogene, TEC, and processed_pseudogene. Gene counts were normalized with DESEQ[145] through metaseqR2. Genes with more than 10 counts in at least 50% of the samples were kept for further processing. For differential expression analysis, the PANDORA algorithm[146] was used to estimate a meta p-value integrating the results from the DESEQ, DESEQ2,[147] edgeR,[148] limma,[149] NBPSeq,[150] and NOISeq[151] algorithms. All additional parameters were set to default values.
Pathway enrichment analysis was performed for the Gene Ontology Biological process (BP) and Molecular Function (MF) terms through GeneCodis 4.[152] The volcano plots, scatterplots, Venn diagrams, and dot plots were generated using the ggplot2 Bioconductor package.

O=C1NC(=O)C(Cc2ccc(OCCC3CCN(C(=O)OCc4cc(Cl)cc(Cl)c4)CC3)cc2)S1 (centres unmarked) [EL244, 3,5-dichlorobenzyl 4-(2-(4-((2,4-dioxothiazolidin-5-yl)methyl)phenoxy)ethyl)piperidine-1-carboxylate]
Evi2a nFC: 0.57
Fam120b log2 nFC: 0.61
Fam120b nFC: 1.53
Fbln5 log2 nFC: -0.64
Fbln5 nFC: 0.64
Fcer1g log2 nFC: -0.80
Fcer1g nFC: 0.57
Flt1 log2 nFC: 0.58
Flt1 nFC: 1.50
Fmod log2 nFC: -1.79
Fmod nFC: 0.29
Fn1 log2 nFC: -1.69
Fn1 nFC: 0.31
Foxm1 log2 nFC: -1.56
Foxm1 nFC: 0.34
Gas7 log2 nFC: -0.82
Gas7 nFC: 0.57
Gatm log2 nFC: -1.79
Gatm nFC: 0.29
Gen1 log2 nFC: -1.63
Gen1 nFC: 0.32
Gins2 log2 nFC: -1.57
Gins2 nFC: 0.34
Gja4 log2 nFC: -0.81
Gja4 nFC: 0.57
Gm9844 log2 nFC: -0.79
Gm9844 nFC: 0.58
Gm22774 log2 nFC: -2.05
Gm22774 nFC: 0.24
Gm23451 log2 nFC: -1.99
Gm23451 nFC: 0.25
Gm49673 log2 nFC: -0.71
Gm49673 nFC: 0.61
Gpc1 log2 nFC: -0.80
Gpc1 nFC: 0.57
Gtse1 log2 nFC: -1.49
Gtse1 nFC: 0.36
Gxylt2 log2 nFC: -1.47
Gxylt2 nFC: 0.36
Gyg log2 nFC: -0.60
Gyg nFC: 0.66
H2-Aa log2 nFC: -0.68
H2-Aa nFC: 0.62
H2-Eb1 log2 nFC: -0.70
H2-Eb1 nFC: 0.62
H2-M2 log2 nFC: -1.86
H2-M2 nFC: 0.27
H2ac11 log2 nFC: -1.45
H2ac11 nFC: 0.37
H2ac12 log2 nFC: -1.44
H2ac12 nFC: 0.37
Hc log2 nFC: 0.67
Hc nFC: 1.59
Herpud1 log2 nFC: 0.64
Herpud1 nFC: 1.56
Hexb log2 nFC: -0.83
Hexb nFC: 0.56
Hhip log2 nFC: -0.72
Hhip nFC: 0.61
Hif1a log2 nFC: -0.69
Hif1a nFC: 0.62
Hist1h2ao log2 nFC: -1.60
Hist1h2ao nFC: 0.33
Hist1h2ap log2 nFC: -2.04
Hist1h2ap nFC: 0.24
Hmgn3 log2 nFC: -0.64
Hmgn3 nFC: 0.64
Ier3 log2 nFC: -0.63
Ier3 nFC: 0.65
Igf1 log2 nFC: -1.60
Igf1 nFC: 0.33
Igfbp4 log2 nFC: -0.58
Igfbp4 nFC: 0.67
Inhba log2 nFC: -2.22
Inhba nFC: 0.21
Iqgap3 log2 nFC: -2.41
Iqgap3 nFC: 0.19
Itgax log2 nFC: -0.80
Itgax nFC: 0.58
Jpt1 log2 nFC: -0.68
Jpt1 nFC: 0.63
Kank3 log2 nFC: 0.61
Kank3 nFC: 1.53
Kif2c log2 nFC: -1.67
Kif2c nFC: 0.32
Kif11 log2 nFC: -1.74
Kif11 nFC: 0.30
Kif14 log2 nFC: -1.56
Kif14 nFC: 0.34
Kif15 log2 nFC: -1.89
Kif15 nFC: 0.27
Kif20a log2 nFC: -2.52
Kif20a nFC: 0.17
Knstrn log2 nFC: -2.52
Knstrn nFC: 0.17
Lama1 log2 nFC: -2.43
Lama1 nFC: 0.19
Lap3 log2 nFC: -0.71
Lap3 nFC: 0.61
Lbh log2 nFC: -0.66
Lbh nFC: 0.63
Lgals3 log2 nFC: -0.80
Lgals3 nFC: 0.57
Lipa log2 nFC: -0.78
Lipa nFC: 0.58
Lmnb2 log2 nFC: -0.70
Lmnb2 nFC: 0.62
Lockd log2 nFC: -1.59
Lockd nFC: 0.33
Lox log2 nFC: -0.69
Lox nFC: 0.62
Loxl1 log2 nFC: -0.69
Loxl1 nFC: 0.62
Lpl log2 nFC: -0.68
Lpl nFC: 0.62
Ltbp2 log2 nFC: -1.44
Ltbp2 nFC: 0.37
Map2 log2 nFC: -0.67
Map2 nFC: 0.63
Mat2a log2 nFC: 0.59
Mat2a nFC: 1.50
Matk log2 nFC: -1.42
Matk nFC: 0.37
Mcm2 log2 nFC: -0.80
Mcm2 nFC: 0.57
Mcm3 log2 nFC: -0.84
Mcm3 nFC: 0.56
Mcm6 log2 nFC: -0.76
Mcm6 nFC: 0.59
Melk log2 nFC: -1.65
Melk nFC: 0.32
Mest log2 nFC: -2.27
Mest nFC: 0.21
Mex3a log2 nFC: -1.69
Mex3a nFC: 0.31
Mgl2 log2 nFC: -0.72
Mgl2 nFC: 0.61
Mif log2 nFC: -0.72
Mif nFC: 0.61
Mir147 log2 nFC: -1.44
Mir147 nFC: 0.37
Mis18bp1 log2 nFC: -1.46
Mis18bp1 nFC: 0.36
Mki67 log2 nFC: -1.62
Mki67 nFC: 0.33
Mmp2 log2 nFC: -0.81
Mmp2 nFC: 0.57
Mmp12 log2 nFC: -2.48
Mmp12 nFC: 0.18
Mmp13 log2 nFC: -1.80
Mmp13 nFC: 0.29
Ms4a7 log2 nFC: -1.49
Ms4a7 nFC: 0.36
Msr1 log2 nFC: -1.44
Msr1 nFC: 0.37
Mybpc2 log2 nFC: -2.17
Mybpc2 nFC: 0.22
Nans log2 nFC: -0.72
Nans nFC: 0.61
Nek6 log2 nFC: -0.68
Nek6 nFC: 0.63
Nipal3 log2 nFC: 0.64
Nipal3 nFC: 1.56
Npr2 log2 nFC: 0.59
Npr2 nFC: 1.50
Ntrk2 log2 nFC: -1.60
Ntrk2 nFC: 0.33
Nup93 log2 nFC: -0.64
Nup93 nFC: 0.64
Nusap1 log2 nFC: -2.02
Nusap1 nFC: 0.25
Nwd2 log2 nFC: -1.51
Nwd2 nFC: 0.35
Oaf log2 nFC: -0.81
Oaf nFC: 0.57
Olfml2b log2 nFC: -0.82
Olfml2b nFC: 0.57
Ooep log2 nFC: -1.51
Ooep nFC: 0.35
Otud7b log2 nFC: 0.61
Otud7b nFC: 1.53
P3h1 log2 nFC: -0.85
P3h1 nFC: 0.55
P4ha3 log2 nFC: -2.15
P4ha3 nFC: 0.23
Pbk log2 nFC: -2.73
Pbk nFC: 0.15
Pclaf log2 nFC: -2.08
Pclaf nFC: 0.24
Pcmtd1 log2 nFC: 0.63
Pcmtd1 nFC: 1.54
Pdgfc log2 nFC: -1.47
Pdgfc nFC: 0.36
Pdzd2 log2 nFC: 0.60
Pdzd2 nFC: 1.52
Phactr2 log2 nFC: 0.63
Phactr2 nFC: 1.54
Pianp log2 nFC: -1.75
Pianp nFC: 0.30
Pla1a log2 nFC: -1.42
Pla1a nFC: 0.37
Pld4 log2 nFC: -0.66
Pld4 nFC: 0.63
Plk1 log2 nFC: -1.89
Plk1 nFC: 0.27
Plk2 log2 nFC: -0.82
Plk2 nFC: 0.57
Plpp3 log2 nFC: 0.65
Plpp3 nFC: 1.57
Plxdc2 log2 nFC: 0.61
Plxdc2 nFC: 1.53
Pmepa1 log2 nFC: -0.76
Pmepa1 nFC: 0.59
Pole2 log2 nFC: -1.50
Pole2 nFC: 0.35
Pole log2 nFC: -1.58
Pole nFC: 0.34
Por log2 nFC: 0.66
Por nFC: 1.58
Ppa1 log2 nFC: -0.71
Ppa1 nFC: 0.61
Ppp1r9a log2 nFC: 0.61
Ppp1r9a nFC: 1.53
Prc1 log2 nFC: -2.31
Prc1 nFC: 0.20
Prcp log2 nFC: -0.69
Prcp nFC: 0.62
Prdx1 log2 nFC: -0.62
Prdx1 nFC: 0.65
Prrx2 log2 nFC: -1.75
